The values that follow come from the supplement of paper PMC10307832.

Common to all, as to test: relative viability (nuclei count vs DMSO), 5 days (fraction); higher = more cells survive
Compound in experiment [1]: O=C(c1cc(Cc2n[nH]c(=O)c3ccccc23)ccc1F)N1CCN(C(=O)C2CC2)CC1 [Olaparib] + C[C@@H](Oc1cc(-c2cnn(C3CCNCC3)c2)cnc1N)c1c(Cl)ccc(F)c1Cl [Crizotinib] (partner 1 µM)
The gist of the method: (§1)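 Cells from lung cancer lines were seeded into 1536-well plates and, one day later, dosed by pin tool. Treatments were either a single drug or a fixed dose of an anchor drug with five library-drug doses (not always all listed) in √10 steps. After 5 days, nuclei were stained in a one-step fixation (final 0.05% Triton X-100, 1% formaldehyde, 1 ug/ml Hoechst) and counted on 4× images, and relative viability is the treated-to-vehicle nuclei ratio, as the median of duplicate plates.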

Compound in experiment [2]: O=C(c1cc(Cc2n[nH]c(=O)c3ccccc23)ccc1F)N1CCN(C(=O)C2CC2)CC1 [Olaparib] + Cc1cc(Nc2cc(N3CCN(C)CC3)nc(Sc3ccc(NC(=O)C4CC4)cc3)n2)n[nH]1 [Tozasertib] (partner 0.1 µM)
The essentials:
as §1

Compound in experiment [3]: C[C@@H](Oc1cc(-c2cnn(C3CCNCC3)c2)cnc1N)c1c(Cl)ccc(F)c1Cl [Crizotinib] + Cc1nc(Nc2ncc(C(=O)Nc3c(C)cccc3Cl)s2)cc(N2CCN(CCO)CC2)n1 [Dasatinib] (partner 0.075 µM)
The essentials: as §1

Compound in experiment [4]: CC(C)C[C@H](NC(=O)[C@H](CCc1ccccc1)NC(=O)CN1CCOCC1)C(=O)N[C@@H](Cc1ccccc1)C(=O)N[C@@H](CC(C)C)C(=O)[C@@]1(C)CO1 [Carfilzomib] + CCNC(=O)c1noc(-c2cc(C(C)C)c(O)cc2O)c1-c1ccc(CN2CCOCC2)cc1 [Luminespib] (partner 0.01 µM)
The gist of the method:
as §1

For SW 1573, the relative viability amounted to 0.788 in experiment [1] (first compound 0.08 µM); 0.768 in experiment [1] (first compound 0.253 µM); 0.601 in experiment [1] (first compound 2.53 µM); 0.57 in experiment [1] (first compound 8 µM); 0.148 in experiment [2] (first compound 0.08 µM); 0.165 in experiment [2] (first compound 0.253 µM). In addition, the relative viability in experiment [2] (first compound 2.53 µM) is 0.234; in experiment [2] (first compound 8 µM) it was 0.172; in experiment [3] (first compound 0.01 µM) it was 0.352; in experiment [3] (first compound 0.03162 µM) it was 0.389; in experiment [3] (first compound 0.1 µM), 0.51; in experiment [3] (first compound 0.3162 µM), 0.449. For the same cell line, the relative viability in experiment [3] (first compound 1 µM) was 0.454; in experiment [4] (first compound 0.001 µM), 0.317; in experiment [4] (first compound 0.003162 µM), 0.23; in experiment [4] (first compound 0.01 µM) it was 0.368; in experiment [4] (first compound 0.03162 µM), 0.0748; in experiment [4] (first compound 0.1 µM), 0.057.
Consider UMC-11, for which the relative viability in experiment [1] (first compound 0.08 µM) worked out at 0.757; in experiment [1] (first compound 0.253 µM), 0.502; in experiment [1] (first compound 2.53 µM) it was 0.492; in experiment [1] (first compound 8 µM), 0.265; in experiment [2] (first compound 0.08 µM), 0.231; in experiment [2] (first compound 0.253 µM) it was 0.208. Also, the relative viability was found to be 0.235 in experiment [2] (first compound 2.53 µM); 0.253 in experiment [2] (first compound 8 µM); 0.381 in experiment [3] (first compound 0.01 µM); 0.468 in experiment [3] (first compound 0.03162 µM); 0.426 in experiment [3] (first compound 0.1 µM); 0.282 in experiment [3] (first compound 0.3162 µM). Moreover, the relative viability in experiment [3] (first compound 1 µM) worked out at 0.502; in experiment [4] (first compound 0.001 µM) it was 1.01; in experiment [4] (first compound 0.003162 µM), 1.01; in experiment [4] (first compound 0.01 µM), 1.02; in experiment [4] (first compound 0.03162 µM), 0.846; in experiment [4] (first compound 0.1 µM) it was 0.268.
